From paper PMC8400311, “Novel Anti-Melanogenic Compounds, (Z)-5-(Substituted Benzylidene)-4-thioxothiazolidin-2-one Derivatives: In Vitro and In Silico Insights” (Molecules, 2021)
Values joined by “and” are separate entries in the source; they are usually repeats but may differ in a detail not shown here. Identical values can stand only once.

Key:
mushroom tyrosinase [1] = assay: Mushroom tyrosinase inhibition assay; type: biochemical; conditions: for IC50: L-tyrosine as substrate, mean of 3 experiments, read-out: IC50 against mushroom tyrosinase; for fold lower tyrosinase inhibitory activity than 2b: ratio of IC50 values vs 2b
Protocol: The absorbances of dopachrome produced in each well during incubation was measured at 450 nm using a microplate reader (VersaMax™, Molecular Devices, Sunnyvale, CA, USA). […] All experiments were independently conducted 3 times. To calculate the % inhibition of tyrosinase activity, the following formula was used: % inhibition = […], where A means the optical density of the test samples and B means the optical density of the non-treated control. To calculate the concentration necessary for 50% inhibition of enzyme activity (IC50), the % tyrosinase inhibition of each compound was obtained at 3 or more different concentrations. IC50 values were calculated by constructing a linear regression curve showing the concentration of the (Z)-BTTZ compounds on the x-axis and percentage inhibition on the y-axis. To obtain a negative control dimethyl sulfoxide (DMSO) was added instead of the (Z)-BTTZ compounds.

B16F10 melanoma cells [2] = assay: Melanin content assay in α-MSH-stimulated cells; type: cell-based, murine; conditions: for reduction in melanin content: 48 h
Protocol: Melanin content assays were used to evaluate the inhibitory effects of compounds 2b and 2f on α-MSH-stimulated melanogenesis. […] The inhibitory activities on α-MSH-stimulated melanogenesis were determined by measuring melanin optical densities. The anti-melanogenesis activities of compounds 2b and 2f were assessed using a standard melanin content assay with minor modifications. Briefly, B16F10 cells were seeded at a density of 5 × 10^4/well in a 24-well plate and allowed to adhere to wells in a DMEM solution containing penicillin/streptomycin (100 IU/100 µg/mL) and 10% heat-inactivated FBS in a standard humidified 5% CO2 atmosphere at 37 °C. […] Cells were then rinsed twice with PBS and lysed in 200 µL of 1N NaOH containing 10% dimethyl sulfoxide (DMSO) for 1 h at 60 °C. Lysates were transferred to the wells of a 96-well plate, and melanin absorbances were measured at 405 nm using a microplate reader (VersaMax^TM, Molecular Devices, Sunnyvale, CA, USA). All experiments were conducted three times in triplicate. […] Bars represent standard errors.

mushroom tyrosinase [3] = assay: Kinetic study of mushroom tyrosinase inhibition (Lineweaver–Burk plots); type: biochemical; conditions: L-tyrosine 0.5–8.0 mM
Protocol: To investigate the modes of action of compounds 2b and 2f, a kinetic study was performed using mushroom tyrosinase and different concentrations of L-tyrosine as a substrate in the presence of 2b or 2f. As depicted in Figure 4, inhibitory mechanisms were determined using Lineweaver–Burk plot analysis. The Lineweaver–Burk plot patterns of 2b and 2f were similar. The plots obtained at different concentrations of 2b and 2f merged at single points on the y-axis. Regardless of the concentration, the Vmax values of 2b and 2f were independent of concentration, whereas their KM values increased concentration-dependently.
Compounds 2b or 2f (10 µL, final concentrations: 0, 0.05, 0.1, or 0.2 µM for 2b and 0, 2, 4, or 8 µM for 2f) and mushroom tyrosinase solution (20 µL, 150 units) were added to the wells of a 96-well plate containing aqueous solutions (170 µL) containing L-tyrosine at 0.5, 1.0, 2.0, 4.0, or 8.0 mM (final concentrations), distilled water, and potassium phosphate buffer (final concentration: 14.7 mM, pH 6.5), in the ratio 10:9:10. Initial rates of dopachrome formation in reaction mixtures were calculated by measuring increases in absorbances at 492 nm (ΔOD492/min) using a microplate reader (VersaMax^TM, Molecular Devices, Sunnyvale, CA, USA). […] Modes of tyrosinase inhibition were determined using points of convergence. […]

B16F10 melanoma cells [4] = assay: Cell viability, EZ-Cytox assay; type: cell-based, murine; conditions: concentrations ≤25 µM; 24 and 48 h for 2b and 2f, respectively
Protocol: Before examining the inhibitory effects of compounds 2b and 2f on tyrosinase and melanin biosynthesis, we investigated their cytotoxic effects using murine B16F10 melanoma cells. The cells were treated with different concentrations of 2b or 2f (0, 1, 2.5, 5, 10, or 25 µM) for 24 and 48 h (Figure 7), respectively, and the cell viabilities were assessed using the EZ-Cytox assay.
Cell viability assays of compounds 2b and 2f were performed using B16F10 melanoma cells and the EZ-Cytox assay (EZ-3000, DoGenBio, Seoul, Korea), as previously described. Briefly, cells were seeded at a density of 1 × 10^4 cells/well in a 96-well plate for 24 h, and then were exposed to different concentrations (0, 1, 2.5, 5, 10, or 25 µM) of 2b or 2f and incubated at 37 °C for 24 and 48 h, respectively. EZ-Cytox solution (10 µL) was then added to each well and cells were incubated at 37 °C for 2 h. Absorbances were measured at 450 nm using a microplate reader (VersaMax^TM, Molecular Devices, Sunnyvale, CA, USA). Each assay was performed in triplicate.
Figure 7 The cytotoxic effects of compounds 2b (a) and 2f (b) on B16F10 melanoma cells at concentrations of 1, 2.5, 5, 10, or 25 µM. Cell viabilities were determined using the EZ-Cytox assay and are expressed as percentages versus non-treated controls. Bars present standard errors.

[5] = tested on: cellular tyrosinase in B16F10 melanoma cells; assay: Cellular tyrosinase activity assay (L-DOPA oxidation) in α-MSH-stimulated cells; type: cell-based, murine; conditions: for reduction in cellular tyrosinase activity: 48 h
Protocol: The inhibitory activities of compounds 2b and 2f against cellular tyrosinase were assessed using α-MSH-stimulated melanoma cells. […] The inhibitory effects on tyrosinase activity were evaluated by measuring optical densities.
Tyrosinase activities were assessed by determining the L-DOPA oxidation rate, as described previously with minor modifications. […] Cells were then rinsed twice with PBS, exposed to 100 µL of lysis buffer (90 µL of 50 mM phosphate buffer pH 6.8; 5 µL of 2 mM PMSF; 5 µL of 20% Triton), and frozen at −80 °C for 30 min. After defrosting, lysates were centrifuged at 12,000 g for 30 min at 4 °C, and supernatants (80 µL) were mixed with 10 mM L-DOPA (20 µL) in a 96-well plate. Absorbances were measured at 490 nm at 37 °C every 10 min for 1 h using a microplate reader (VersaMax^TM, Molecular Devices, Sunnyvale, CA, USA). All experiments were carried out three times in triplicate.
Bars represent standard errors.

[6] = 25 µM compound, α-MSH 0.5 µM, 48 h (α-MSH alone 1.61-fold)

## O=C1NC(=S)/C(=C/c2ccc(O)cc2)S1 [Compound 2a, (Z)-5-(4-Hydroxybenzylidene)-4-thioxothiazolidin-2-one]
Mushroom tyrosinase [1]
  IC50: 28.1 ± 1.16 µM
  fold lower tyrosinase inhibitory activity than 2b: 60 fold

## O=C1NC(=S)/C(=C/c2ccc(O)cc2O)S1 [Compound 2b, (Z)-5-(2,4-Dihydroxybenzylidene)-4-thioxothiazolidin-2-one]
Mushroom tyrosinase [1]; ratio of IC50 values vs kojic acid
  fold higher inhibitory potency than kojic acid (mushroom tyrosinase): 141 fold and > 100 fold
B16F10 melanoma cells [2]; 5 µM compound, α-MSH 0.5 µM
  reduction in melanin content: 26%
B16F10 melanoma cells [2]; 5 µM compound, α-MSH 0.5 µM, 48 h (α-MSH alone 1.61-fold)
  melanin level versus non-treated controls: 1.19 fold
B16F10 melanoma cells [2]; 10 µM compound, α-MSH 0.5 µM
  reduction in melanin content: 44%
B16F10 melanoma cells [2]; 10 µM compound, α-MSH 0.5 µM, 48 h (α-MSH alone 1.61-fold)
  melanin level versus non-treated controls: 0.91 fold
B16F10 melanoma cells [2]; 25 µM compound, α-MSH 0.5 µM
  reduction in melanin content: 47%
B16F10 melanoma cells [2]; [6]
  melanin level versus non-treated controls: 0.85 fold
Mushroom tyrosinase [3]
  mode of mushroom tyrosinase inhibition: competitive
B16F10 melanoma cells [4]
  cytotoxic effect on B16F10 cells: Neither 2b nor 2f exhibited any significant cytotoxic effect
[5]; 5 µM compound, α-MSH 0.5 µM
  reduction in cellular tyrosinase activity: 16%
[5]; 5 µM compound, α-MSH 0.5 µM, 48 h (α-MSH alone 2.19-fold)
  cellular tyrosinase activity versus non-treated cells: 1.85 fold
[5]; 10 µM compound, α-MSH 0.5 µM
  reduction in cellular tyrosinase activity: 32%
[5]; 10 µM compound, α-MSH 0.5 µM, 48 h (α-MSH alone 2.19-fold)
  cellular tyrosinase activity versus non-treated cells: 1.48 fold
[5]; 25 µM compound, α-MSH 0.5 µM
  reduction in cellular tyrosinase activity: 45%
[5]; 25 µM compound, α-MSH 0.5 µM, 48 h (α-MSH alone 2.19-fold)
  cellular tyrosinase activity versus non-treated cells: 1.20 fold

## O=C1NC(=S)/C(=C/c2ccc(O)c(O)c2)S1 [Compound 2c, (Z)-5-(3,4-Dihydroxybenzylidene)-4-thioxothiazolidin-2-one]
Mushroom tyrosinase [1]
  IC50: 47.4 ± 2.18 µM

## COc1cc(/C=C2\SC(=O)NC2=S)ccc1O [Compound 2d, (Z)-5-(4-Hydroxy-3-methoxybenzylidene)-4-thioxothiazolidin-2-one]
Mushroom tyrosinase [1]
  IC50: 70.8 ± 1 µM
Mushroom tyrosinase [1]; ratio of IC50 values vs 2f
  fold lower mushroom tyrosinase inhibitory activity than compound 2f: 4.6 fold

## CCOc1cc(/C=C2\SC(=O)NC2=S)ccc1O [Compound 2e, (Z)-5-(3-Ethoxy-4-hydroxybenzylidene)-4-thioxothiazolidin-2-one]
Mushroom tyrosinase [1]
  IC50: 92.81 ± 0.89 µM

## COc1ccc(/C=C2\SC(=O)NC2=S)cc1O [Compound 2f, (Z)-5-(3-Hydroxy-4-methoxybenzylidene)-4-thioxothiazolidin-2-one]
Mushroom tyrosinase [1]
  IC50: 15.2 ± 1.68 µM
B16F10 melanoma cells [2]; 5 µM compound, α-MSH 1.0 µM
  reduction in melanin content: 14%
B16F10 melanoma cells [2]; 5 µM compound, α-MSH 1.0 µM, 48 h (α-MSH alone 3.51-fold)
  melanin level versus non-treated controls: 3.03 fold
B16F10 melanoma cells [2]; 10 µM compound, α-MSH 1.0 µM
  reduction in melanin content: 46%
B16F10 melanoma cells [2]; 10 µM compound, α-MSH 1.0 µM, 48 h (α-MSH alone 3.51-fold)
  melanin level versus non-treated controls: 1.88 fold
B16F10 melanoma cells [2]; 25 µM compound, α-MSH 1.0 µM
  reduction in melanin content: 60%
B16F10 melanoma cells [2]; 25 µM compound, α-MSH 1.0 µM, 48 h (α-MSH alone 3.51-fold)
  melanin level versus non-treated controls: 1.42 fold
Mushroom tyrosinase [3]
  mode of mushroom tyrosinase inhibition: competitive
B16F10 melanoma cells [4]
  cytotoxic effect on B16F10 cells: Neither 2b nor 2f exhibited any significant cytotoxic effect
[5]; 5 µM compound, α-MSH 1.0 µM
  reduction in cellular tyrosinase activity: 23%
[5]; 5 µM compound, α-MSH 1.0 µM, 48 h (α-MSH alone 2.84-fold)
  cellular tyrosinase activity versus non-treated cells: 2.20 fold
[5]; 10 µM compound, α-MSH 1.0 µM
  reduction in cellular tyrosinase activity: 46%
[5]; 10 µM compound, α-MSH 1.0 µM, 48 h (α-MSH alone 2.84-fold)
  cellular tyrosinase activity versus non-treated cells: 1.54 fold
[5]; 25 µM compound, α-MSH 1.0 µM
  reduction in cellular tyrosinase activity: 59%
[5]; 25 µM compound, α-MSH 1.0 µM, 48 h (α-MSH alone 2.84-fold)
  cellular tyrosinase activity versus non-treated cells: 1.18 fold

## COc1cc(/C=C2\SC(=O)NC2=S)cc(OC)c1O [Compound 2g, (Z)-5-(4-Hydroxy-3,5-dimethoxybenzylidene)-4-thioxothiazolidin-2-one]
Mushroom tyrosinase [1]
  IC50: 82.4 ± 1.26 µM

## O=C1NC(=S)/C(=C/c2ccccc2O)S1 [Compound 2h, (Z)-5-(2-Hydroxybenzylidene)-4-thioxothiazolidin-2-one]
Mushroom tyrosinase [1]
  IC50: 147.6 ± 0.96 µM
  fold lower tyrosinase inhibitory activity than 2b: 314 fold

## O=C1NC(=S)/C(=C/c2ccc(O)c(Br)c2)S1 [Compound 2i, (Z)-5-(3-Bromo-4-hydroxybenzylidene)-4-thioxothiazolidin-2-one]
Mushroom tyrosinase [1]
  IC50: 26.3 ± 4.1 µM

## COc1ccc(/C=C2\SC(=O)NC2=S)cc1 [Compound 2j, (Z)-5-(4-Methoxybenzylidene)-4-thioxothiazolidin-2-one]
Mushroom tyrosinase [1]
  IC50: 30.8 ± 1.41 µM

## COc1ccc(/C=C2\SC(=O)NC2=S)c(OC)c1 [Compound 2k, (Z)-5-(2,4-Dimethoxybenzylidene)-4-thioxothiazolidin-2-one]
Mushroom tyrosinase [1]
  IC50: 126.4 ± 0.46 µM

## COc1ccc(/C=C2\SC(=O)NC2=S)cc1OC [Compound 2l, (Z)-5-(3,4-Dimethoxybenzylidene)-4-thioxothiazolidin-2-one]
Mushroom tyrosinase [1]
  IC50: 23.3 ± 0.28 µM

## O=c1cc(CO)occ1O [Kojic acid, reference compound]
B16F10 melanoma cells [2]; 25 µM compound, α-MSH 0.5 µM
  reduction in melanin content: 14%
B16F10 melanoma cells [2]; [6]
  melanin level versus non-treated controls: 1.38 fold
B16F10 melanoma cells [2]; 25 µM compound, α-MSH 1.0 µM
  reduction in melanin content: 45%
[5]; 25 µM compound, α-MSH 0.5 µM
  reduction in cellular tyrosinase activity: 14%
[5]; 25 µM compound, α-MSH 1.0 µM
  reduction in cellular tyrosinase activity: 33%
